Results taken from US20140221361A1, “C-19 MODIFIED TRITERPENOIDS WITH HIV MATURATION INHIBITORY ACTIVITY” (priority 2013, published 2014).

The compounds below were run on recombinant NL4-3 virus (Renilla luciferase in nef, Gag P373S) (assay: HIV cell culture assay (luciferase reporter, MT-2 cells)). Conditions: MT-2 cells infected for 4-5 days with NLRluc recombinants; luciferase activity; serial dilutions of inhibitor.
Format: cell-based, HIV-1
Description: MT-2 cells and 293T cells were obtained from the NIH AIDS Research and Reference Reagent Program. MT-2 cells were propagated in RPMI 1640 media supplemented with 10% heat inactivated fetal bovine serum, […]. The 293T cells were propagated in DMEM media supplemented with 10% heat inactivated fetal bovine serum (FBS), 100 units/ml penicillin G and 100 µg/ml streptomycin. The proviral DNA clone of NL4-3 was obtained from the NIH AIDS Research and Reference Reagent Program. A recombinant NL4-3 virus, in which a section of the nef gene from NL4-3 was replaced with the Renilla luciferase gene, was used as a reference virus. In addition, residue Gag P373 was converted to P373S. Briefly, the recombinant virus was prepared by transfection of the altered proviral clone of NL4-3. Transfections were performed in 293T cells using LipofectAMINE PLUS from Invitrogen (Carlsbad, Calif.), according to manufacturer's instruction. The virus was titered in MT-2 cells using luciferase enzyme activity as a marker. Luciferase was quantitated using the Dual Luciferase kit from Promega (Madison, Wis.), with modifications to the manufacturer's protocol. The diluted Passive Lysis solution was pre-mixed with the re-suspended Luciferase Assay Reagent and the re-suspended Stop & Glo Substrate (2:1:1 ratio). Fifty (50) μL of the mixture was added to each aspirated well on assay plates and luciferase activity was measured immediately on a Wallac TriLux (Perkin-Elmer). Antiviral activities of inhibitors toward the recombinant virus were quantified by measuring luciferase activity in cells infected for 4-5 days with NLRluc recombinants in the presence serial dilutions of the inhibitor.

Compound	EC50
CC(CC(=O)O)[C@@H]1CC[C@]2(C(=O)NCCN(C)C)CC[C@]3(C)[C@H](CC[C@@H]4[C@@]5(C)CC[C@H](c6ccc(C(=O)O)cc6)C(C)(C)[C@@H]5CC[C@]43C)[C@@H]12 (single isomer, unassigned) [Example 21]	40 nM
CC(CO)[C@@H]1CC[C@]2(NCCN3CCS(=O)(=O)CC3)CC[C@]3(C)[C@H](CC[C@@H]4[C@@]5(C)CC=C(c6ccc(C(=O)O)c(F)c6)C(C)(C)[C@@H]5CC[C@]43C)[C@@H]12 (single isomer, unassigned) [Example A4]	2.34 nM
CC(CO)[C@@H]1CC[C@]2(NCCN3CCS(=O)(=O)CC3)CC[C@]3(C)[C@H](CC[C@@H]4[C@@]5(C)CC=C(c6ccc(C(=O)O)c(F)c6)C(C)(C)[C@@H]5CC[C@]43C)[C@@H]12 (single isomer, unassigned) [Example A5]	6.89 nM
CC(CO)[C@@H]1CC[C@]2(NCCN3CCS(=O)(=O)CC3)CC[C@]3(C)[C@H](CC[C@@H]4[C@@]5(C)CC=C(c6ccc(C(=O)O)cc6)C(C)(C)[C@@H]5CC[C@]43C)[C@@H]12 (single isomer, unassigned) [Example B5]	1.15 nM
CC(CO)[C@@H]1CC[C@]2(NCCN3CCS(=O)(=O)CC3)CC[C@]3(C)[C@H](CC[C@@H]4[C@@]5(C)CC=C(c6ccc(C(=O)O)cc6)C(C)(C)[C@@H]5CC[C@]43C)[C@@H]12 (single isomer, unassigned) [Example B6]	3.75 nM
CC(O)(CO)[C@@H]1CC[C@]2(NCCN3CCS(=O)(=O)CC3)CC[C@]3(C)[C@H](CC[C@@H]4[C@@]5(C)CC=C(c6ccc(C(=O)O)cc6)C(C)(C)[C@@H]5CC[C@]43C)[C@@H]12 (single isomer, unassigned) [Example B9]	2.15 nM
CC(O)(CO)[C@@H]1CC[C@]2(NCCN3CCS(=O)(=O)CC3)CC[C@]3(C)[C@H](CC[C@@H]4[C@@]5(C)CC=C(c6ccc(C(=O)O)cc6)C(C)(C)[C@@H]5CC[C@]43C)[C@@H]12 (single isomer, unassigned) [Example B10]	6.67 nM
CC(O)[C@@H]1CC[C@]2(NCCN3CCS(=O)(=O)CC3)CC[C@]3(C)[C@H](CC[C@@H]4[C@@]5(C)CC=C(c6ccc(C(=O)O)cc6)C(C)(C)[C@@H]5CC[C@]43C)[C@@H]12 (single isomer, unassigned) [Example B12]	3.95 nM
CC([C@@H]1CC[C@]2(NCCN3CCS(=O)(=O)CC3)CC[C@]3(C)[C@H](CC[C@@H]4[C@@]5(C)CC=C(c6ccc(C(=O)O)cc6)C(C)(C)[C@@H]5CC[C@]43C)[C@@H]12)N(C)C (single isomer, unassigned) [Example B39]	4.33 nM
CC([C@@H]1CC[C@]2(NCCN3CCS(=O)(=O)CC3)CC[C@]3(C)[C@H](CC[C@@H]4[C@@]5(C)CC=C(c6ccc(C(=O)O)cc6)C(C)(C)[C@@H]5CC[C@]43C)[C@@H]12)N(C)C (single isomer, unassigned) [Example B40]	40 nM
CC(N)[C@@H]1CC[C@]2(NCCN3CCS(=O)(=O)CC3)CC[C@]3(C)[C@H](CC[C@@H]4[C@@]5(C)CC=C(c6ccc(C(=O)O)cc6)C(C)(C)[C@@H]5CC[C@]43C)[C@@H]12 (single isomer, unassigned) [Example B41]	40 nM

Same assay, conditions: Renilla, NL43, MT-2 cells infected for 4-5 days with NLRluc recombinants; luciferase activity; serial dilutions of inhibitor

Compound	EC50
CC(CC(=O)O)[C@@H]1CC[C@]2(C(=O)NCCN(C)C)CC[C@]3(C)[C@H](CC[C@@H]4[C@@]5(C)CC[C@H](c6ccc(C(=O)O)cc6)C(C)(C)[C@@H]5CC[C@]43C)[C@@H]12 (single isomer, unassigned) [Example 20]	30 nM
COCC(C)(O)[C@@H]1CC[C@]2(NCCN3CCS(=O)(=O)CC3)CC[C@]3(C)[C@H](CC[C@@H]4[C@@]5(C)CC=C(c6ccc(C(=O)O)cc6)C(C)(C)[C@@H]5CC[C@]43C)[C@@H]12 (single isomer, unassigned) [Example B1]	1.19 nM
COCC(C)(OC)[C@@H]1CC[C@]2(NCCN3CCS(=O)(=O)CC3)CC[C@]3(C)[C@H](CC[C@@H]4[C@@]5(C)CC=C(c6ccc(C(=O)O)cc6)C(C)(C)[C@@H]5CC[C@]43C)[C@@H]12 (single isomer, unassigned) [Example B2]	1.05 nM
CC(CF)[C@@H]1CC[C@]2(NCCN3CCS(=O)(=O)CC3)CC[C@]3(C)[C@H](CC[C@@H]4[C@@]5(C)CC=C(c6ccc(C(=O)O)cc6)C(C)(C)[C@@H]5CC[C@]43C)[C@@H]12 (single isomer, unassigned) [Example B8]	2.51 nM
CC(O)[C@@H]1CC[C@]2(NCCN3CCS(=O)(=O)CC3)CC[C@]3(C)[C@H](CC[C@@H]4[C@@]5(C)CC=C(c6ccc(C(=O)O)cc6)C(C)(C)[C@@H]5CC[C@]43C)[C@@H]12 (single isomer, unassigned) [Example B11]	2.18 nM
CC(=NO)[C@@H]1CC[C@]2(NCCN3CCS(=O)(=O)CC3)CC[C@]3(C)[C@H](CC[C@@H]4[C@@]5(C)CC=C(c6ccc(C(=O)O)cc6)C(C)(C)[C@@H]5CC[C@]43C)[C@@H]12 (single isomer, unassigned) [Example B14]	3.75 nM
CC(CN1CCOCC1)[C@@H]1CC[C@]2(NCCN3CCS(=O)(=O)CC3)CC[C@]3(C)[C@H](CC[C@@H]4[C@@]5(C)CC=C(c6ccc(C(=O)O)cc6)C(C)(C)[C@@H]5CC[C@]43C)[C@@H]12 (single isomer, unassigned) [Example B16]	0.827 nM
CC(CN1CCS(=O)(=O)CC1)[C@@H]1CC[C@]2(NCCN3CCS(=O)(=O)CC3)CC[C@]3(C)[C@H](CC[C@@H]4[C@@]5(C)CC=C(c6ccc(C(=O)O)cc6)C(C)(C)[C@@H]5CC[C@]43C)[C@@H]12 (single isomer, unassigned) [Example B18]	1.57 nM
CC(N)[C@@H]1CC[C@]2(NCCN3CCS(=O)(=O)CC3)CC[C@]3(C)[C@H](CC[C@@H]4[C@@]5(C)CC=C(c6ccc(C(=O)O)cc6)C(C)(C)[C@@H]5CC[C@]43C)[C@@H]12 (single isomer, unassigned) [Example B19]	30 nM
C=C(CNCCN1CCOCC1)[C@@H]1CC[C@]2(C(=O)O)CC[C@]3(C)[C@H](CC[C@@H]4[C@@]5(C)CC=C(c6ccc(C(=O)O)cc6)C(C)(C)[C@@H]5CC[C@]43C)[C@@H]12 [Example 1, (1R,3aS,5aR,5bR,7aR,11aS,11bR,13aR,13bS)-9-(4-carboxyphenyl)-5a,5b,8,8,11a-pentamethyl-1-(3-(2-morpholinoethylamino)prop-1-en-2-yl)-2,3,3a,4,5,5a,5b,6,7,7a,8,11,11a,11b,12,13,13a,13b-octadecahydro-1H-cyclopenta[a]chrysene-3a-carboxylic acid]	40 nM
C=C(CNCCO)[C@@H]1CC[C@]2(C(=O)O)CC[C@]3(C)[C@H](CC[C@@H]4[C@@]5(C)CC=C(c6ccc(C(=O)O)cc6)C(C)(C)[C@@H]5CC[C@]43C)[C@@H]12 [Example 2, (1R,3aS,5aR,5bR,7aR,11aS,11bR,13aR,13bS)-9-(4-carboxyphenyl)-1-(3-(2-hydroxyethylamino)prop-1-en-2-yl)-5a,5b,8,8,11a-pentamethyl-2,3,3a,4,5,5a,5b,6,7,7a,8,11,11a,11b,12,13,13a,13b-octadecahydro-1H-cyclopenta[a]chrysene-3a-carboxylic acid]	140 nM
C=C(CN(C)C)[C@@H]1CC[C@]2(C(=O)O)CC[C@]3(C)[C@H](CC[C@@H]4[C@@]5(C)CC=C(c6ccc(C(=O)O)cc6)C(C)(C)[C@@H]5CC[C@]43C)[C@@H]12 [Example 3, (1R,3aS,5aR,5bR,7aR,11aS,11bR,13aR,13bS)-9-(4-carboxyphenyl)-1-(3-(dimethylamino)prop-1-en-2-yl)-5a,5b,8,8,11a-pentamethyl-2,3,3a,4,5,5a,5b,6,7,7a,8,11,11a,11b,12,13,13a,13b-octadecahydro-1H-cyclopenta[a]chrysene-3a-carboxylic acid]	100 nM
C=C(CN(C)CCN(C)C)[C@@H]1CC[C@]2(C(=O)O)CC[C@]3(C)[C@H](CC[C@@H]4[C@@]5(C)CC=C(c6ccc(C(=O)O)cc6)C(C)(C)[C@@H]5CC[C@]43C)[C@@H]12 [Example 4, (1R,3aS,5aR,5bR,7aR,11aS,11bR,13aR,13bS)-9-(4-carboxyphenyl)-1-(3-((2-(dimethylamino)ethyl)(methyl)amino)prop-1-en-2-yl)-5a,5b,8,8,11a-pentamethyl-2,3,3a,4,5,5a,5b,6,7,7a,8,11,11a,11b,12,13,13a,13b-octadecahydro-1H-cyclopenta[a]chrysene-3a-carboxylic acid]	1.42 nM
